In the supplement of paper PMC10307832:

Columns and labels:
Assay in all cases: relative viability (nuclei count vs DMSO), 5 days (fraction); higher = more cells survive
[1] = compound: C1CC1C(=O)NC2=NNC3=C2C=CC(=C3)C4=CC(=CC=C4)C(=O)NC5CC5 [XMD13-2] + CC(=O)c1c(C)c2cnc(Nc3ccc(N4CCNCC4)cn3)nc2n(C2CCCC2)c1=O [Palbociclib] (partner 0.5 µM)
In short: (§1)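 Medians of duplicate plates are given as relative viability. That measure is the nuclei count in treated wells divided by the count in vehicle wells. Counts were taken on 4× images of lung cancer cell lines in 1536-well plates, 5 days after pin-tool dosing the day after seeding with one drug alone or a fixed anchor-drug dose plus five library-drug doses (not always all listed) in √10 steps.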

[2] = compound: C1CC1C(=O)NC2=NNC3=C2C=CC(=C3)C4=CC(=CC=C4)C(=O)NC5CC5 [XMD13-2] + Cc1cc(Nc2cc(N3CCN(C)CC3)nc(Sc3ccc(NC(=O)C4CC4)cc3)n2)n[nH]1 [Tozasertib] (partner 0.1 µM)
In short: as §1

[3] = compound: Cc1ccc(C(=O)Nc2cccc(C(F)(F)F)c2)cc1Nc1cncc(C(N)=O)c1 [ALW-II-49-7] + COc1cccc2cc(-c3nc([C@H]4CC[C@H](C(=O)O)CC4)n4ncnc(N)c34)[nH]c12 [OSI-027] (partner 0.5 µM)
In short: as §1

[4] = compound: Cc1nc(Nc2ncc(C(=O)Nc3c(C)cccc3Cl)s2)cc(N2CCN(CCO)CC2)n1 [Dasatinib] + N=C(N)NC(=N)NCCc1ccccc1 [Phenformin] (partner 250 µM)
In short: as §1

| Cell Line | relative viability ([1]; first compound 0.05 µM) | relative viability ([1]; first compound 0.1581 µM) | relative viability ([1]; first compound 0.5 µM) | relative viability ([1]; first compound 1.581 µM) | relative viability ([1]; first compound 5 µM) | relative viability ([2]; first compound 0.05 µM) | relative viability ([2]; first compound 0.1581 µM) | relative viability ([2]; first compound 0.5 µM) | relative viability ([2]; first compound 1.581 µM) | relative viability ([2]; first compound 5 µM) | relative viability ([3]; first compound 0.08 µM) | relative viability ([3]; first compound 0.253 µM) | relative viability ([3]; first compound 0.8 µM) | relative viability ([3]; first compound 2.53 µM) | relative viability ([3]; first compound 8 µM) | relative viability ([4]; first compound 0.005 µM) | relative viability ([4]; first compound 0.01581 µM) | relative viability ([4]; first compound 0.05 µM) | relative viability ([4]; first compound 0.1581 µM) | relative viability ([4]; first compound 0.5 µM) |
| --- | --- | --- | --- | --- | --- | --- | --- | --- | --- | --- | --- | --- | --- | --- | --- | --- | --- | --- | --- | --- |
| NCI-H2342 | 0.517 | 0.522 | 0.546 | 0.488 | 0.502 | 0.547 | 0.421 | 0.525 | 0.603 | 0.575 | 0.532 | 0.535 | 0.602 | 0.592 | 0.562 | 0.626 | 0.482 | 0.556 | 0.356 | 0.304 |
| SW 1573 | 0.442 | 0.366 | 0.717 | 0.371 | 0.287 | 0.196 | 0.167 | 0.155 | 0.145 | 0.354 | 0.683 | 0.653 | 0.524 | 0.656 | 0.505 | 0.417 | 0.326 | 0.288 | 0.217 | 0.18 |
| NCI-H1993 | 0.641 | 0.484 | 0.722 | 0.606 | 0.547 | 0.627 | 0.529 | 0.565 | 0.615 | 0.545 | 0.486 | 0.521 | 0.535 | 0.601 | 0.521 | 0.416 | 0.487 | 0.473 | 0.525 | 0.554 |
| NCI-H661 | 0.378 | 0.395 | 0.392 | 0.406 | 0.408 | 0.335 | 0.307 | 0.33 | 0.36 | 0.427 | 0.552 | 0.773 | 0.781 | 0.78 | 0.452 | 0.266 | 0.222 | 0.249 | 0.226 | 0.243 |
| NCI-H520 | 0.256 | 0.239 | 0.213 | 0.203 | 0.188 | 0.495 | 0.491 | 0.515 | 0.395 | 0.462 | 0.258 | 0.249 | 0.25 | 0.242 | 0.262 | 0.481 | 0.339 | 0.255 | 0.181 | 0.179 |
| ChaGo-K-1 | 0.923 | 0.897 | 0.958 | 0.92 | 0.795 | 0.234 | 0.214 | 0.254 | 0.222 | 0.258 | 0.472 | 0.622 | 0.616 | 0.496 | 0.429 | 0.546 | 0.463 | 0.41 | 0.442 | 0.377 |
| NCI-H2085 | 0.488 | 0.477 | 0.481 | 0.429 | 0.472 | 0.824 | 0.806 | 0.905 | 0.821 | 0.754 | 0.778 | 0.748 | 0.625 | 0.806 | 0.738 | 0.636 | 0.651 | 0.458 | 0.215 | 0.162 |
| NCI-H1651 | 0.543 | 0.507 | 0.508 | 0.527 | 0.503 | 0.721 | 0.807 | 0.64 | 0.759 | 0.672 | 0.668 | 0.629 | 0.543 | 0.687 | 0.572 | 0.355 | 0.285 | 0.308 | 0.35 | 0.241 |
| RERF-LC-KJ | 1.06 | 1.11 | 1.1 | 1.04 | 1.03 | 0.613 | 0.515 | 0.59 | 0.466 | 0.523 | 0.511 | 0.564 | 0.504 | 0.559 | 0.535 | 0.406 | 0.348 | 0.363 | 0.355 | 0.305 |
| NCI-H1755 | 0.468 | 0.444 | 0.457 | 0.474 | 0.409 | 0.664 | 0.575 | 0.498 | 0.543 | 0.494 | 0.789 | 0.728 | 0.7 | 0.67 | 0.532 | 0.477 | 0.46 | 0.423 | 0.352 | 0.218 |
| SK-MES-1 | 0.308 | 0.312 | 0.304 | 0.329 | 0.326 | 0.998 | 0.879 | 0.919 | 0.804 | 0.72 | 0.588 | 0.547 | 0.578 | 0.456 | 0.331 | 0.721 | 0.681 | 0.669 | 0.361 | 0.171 |
| NCI-H2126 | 0.385 | 0.398 | 0.309 | 0.336 | 0.323 | 0.953 | 0.879 | 0.81 | 0.861 | 0.985 | 0.664 | 0.64 | 0.65 | 0.607 | 0.653 | 0.56 | 0.521 | 0.471 | 0.39 | 0.285 |
| EPLC-272H | 0.314 | 0.344 | 0.329 | 0.279 | 0.317 | 0.228 | 0.289 | 0.262 | 0.269 | 0.136 | 0.277 |  | 0.278 | 0.293 | 0.265 | 0.313 | 0.252 | 0.386 | 0.261 | 0.0761 |
| NCI-H1563 |  |  |  |  |  |  |  |  |  |  | 0.717 | 0.71 | 0.731 | 0.782 | 0.679 | 0.67 | 0.573 | 0.595 | 0.636 | 0.517 |
| NCI-H1792 | 0.773 | 0.691 | 0.686 | 0.765 | 0.687 |  |  |  |  |  | 0.805 | 0.774 | 0.609 | 0.149 | 0.376 | 0.198 | 0.394 | 0.415 | 0.135 | 0.0671 |
| NCI-H1623 |  |  |  |  |  | 0.5 | 0.456 | 0.437 | 0.42 | 0.483 | 0.416 | 0.408 | 0.371 | 0.351 | 0.357 | 0.568 | 0.564 | 0.526 | 0.413 | 0.349 |
| NCI-H596 |  |  |  |  |  | 0.901 | 0.942 | 0.816 | 0.89 | 1.03 | 0.777 | 0.749 | 0.589 | 0.624 | 0.776 | 0.728 | 0.52 | 0.712 | 0.44 | 0.402 |
